Results published in patent US20040147595A1, “Biofilm degrading or sloughing compositions and methods” (priority 2001, published 2004).

What was measured:
E. coli MT102 = assay: Growth of E. coli MT102; assay type: cell-based, Escherichia coli; settings: data not shown
Description: Effect of the furanone in a heterologous background. The direct regulation exerted by the las regulon on lasB expression is well described by numerous studies (Gambello & Iglewski, 1991: Pearson et al., 1994; Pearson et al., 1997). Regulatory complexity is added by the observation that the las quorum sensing circuit itself is subject to global regulators (Albus et al., 1997; Whiteley et al., 2000) and that lasB expression is also controlled by other regulators than LasR (Brumlik & Storey, 1992; Pesci et al., 1999; Schictman et al., 1995). It was, therefore, important to rule out that QSI effect, observed is not caused by furanone interaction with high levels of control. Since there is no AHL-based quorum sensing system present in Escherichia coli (Williams et al., 2000), this bacterium provides an unbiased and well-defined genetic background for studying the direct effects of the furanone on the P. aeruginosa las quorum sensing system. We repeated the above-described experiments using E. coli MT102 as a heterologous host for the reporter system. […] This is likely to be attributed to the increased copy number of the reporter plasmid.

[1] = tested on: P. aeruginosa protein synthesis; assay: Constitutive Gfp-expression (pMH306) in PAO1, protein synthesis control; assay type: cell-based, Pseudomonas aeruginosa; settings: PAO1 with pMH306, furanone 0 to 10 μ/ml; data not shown
Description: To determine if the furanone compound worked specifically on the las quorum sensor and not indirectly by disruption of primary metabolic functions, we followed growth as optical density of P. aeruginosa PAO1 in the presence of furanone 56. […] Further, we tested whether the furanone affected P. aeruginosa protein synthesis. The wild type P. aeruginosa PAO1 strain containing the consitutive Gfp-expression vector pMH306 was grown in the presence of furanone 56 at concentrations from 0 to 10 μ/ml. Gfp-expression (fluorescence/OD600 nm) was throughout the growth cycle unaffected by the presence of furanone compound (data not shown).

[2] = tested on: las quorum sensing system (lasB-gfp(ASV) expression); assay: AHL and furanone bioassay, PlasB-gfp(ASV) Plac-lasR reporter in planktonic PAO-JP2; assay type: cell-based, Pseudomonas aeruginosa
Description: AHL and furanone bioassay. Strains were grown exponentially in LB or ABt medium supplemented with 0.5% glucose at 30° C., shading at 250 rpm. At an optical density of approximately 0.8. the cultures were diluted and split into subcultures in glass culture flasks. AHLs and furanone 56 were added to appropriate concentrations and the cultures were further incubated at 30° C. under vigorous shaking. Culture samples were retrieved at various time intervals and green fluorescence was measured with a fluorometer (model RF-1501, Shimadzu, Tokyo, Japan) set at an excitation wavelength of 475 nm and emission wavelength of 515 nm. Relative fluorescence was calculated as green fluorescence normalized to 1 ml culture divided by the optical density (OD600 nm.
Initially, the lasB-gfp(ASV) translational fusion (OdDHL sensor) was thoroughly characterized with respect to its sensitivity and specificity. A culture of E. coli hosting the pMHLAS monitor plasmid was diluted and spilt into several subcultures which were then supplemented with AHLs at concentrations ranging from 0 to 1000 nM. […] When the pMHLAS based reporter system was hosted by PAO-JP2. the OdDHL concentration required for half-maximal activation of the lasB-gfp(ASV) fusion was 8 nM (data not shown). In single copy on the chromosome of PAO-JP2, the OdDHL concentration on required for half-maximal activation of lasB expression was approximately 250 nM (FIG. 2b). Green fluorescent cells were visible by epifluorescence microscopy at a minimal OdDHL concentration of 50 nM (FIG. 2c).
Noteworthy, the inhibitory effect of furanone 56 was relieved at increased concentrations of OdDHL.

SMILES: O=C1C=C/C(=C/Br)O1 [furanone 56]
- effect on growth (E. coli MT102): no effect on growth
- Gfp-expression (fluorescence/OD600 nm) throughout the growth cycle [1]: unaffected
- effect on lasB-gfp(ASV) expression ([2]; 1.25 μ/ml (7.1 μM) furanone, range of OdDHL concentrations): inhibited lasB-gfp(ASV) expression at a wide range of OdDHL concentrations
- complete inhibition of lasB-gfp(ASV) expression ([2]; any of the tested concentrations): complete inhibition was not attained at any of the tested concentrations
